Experimental data reported in patent US12178892B2, “Compounds for positron emission tomography” (Endocyte, Inc., priority 2013, dated 2024).

How the values were obtained:
[1] = system: KB tumor xenografts; test: Ex vivo (postmortem) biodistribution, KB tumor xenografts; format: in vivo, nude mice; details: for FR specificity: in both KB xenograft tumor tissues and A549 xenograft tumor tissues; for radiotracer level in kidneys: mouse, in vivo
Excerpt: (§1) EXAMPLE. […] Without being bound by theory, it is believed herein that the highest accumulation of radioactivity in kidneys, along with the relative low uptake of radiotracer in the hepatobiliary system i.e. liver, bile and intestine/feces supports that renal elimination is the predominant excretion pathway.

[2] = system: A549 tumor xenografts; test: Ex vivo (postmortem) biodistribution, A549 tumor xenografts; set-up: species or system nude mice; details: mouse
Excerpt: as §1, with “It is to be understood that the vertical axis has been expanded and that the kidney data is truncated. […] It is to be understood that the vertical axis has been expanded and that the kidney data is truncated. […] EXAMPLE.” for “EXAMPLE.”

[3] = system: FR; test: Binding in A549 xenograft homogenates; details: A549 xenografts
[4] = system: PSMA(+) prostate cancer tissues; test: Binding to PSMA(+) prostate cancer tissues (tissue imaging); details: compared to ^67Ga-DKFZ-PSMA11
Description: (§2) EXAMPLE. In vitro evaluation of DUPA-EAOA-Phe-Phe-NOTA-^68Ga radiotracer (^68Ga-QC08009). ^67Ga has a longer half life than ^68Ga (about 3.3 days versus about 68 minutes, respectively). Thus, ^67Ga is used as a surrogate of ^68Ga for in vitro evaluation of Kd values and tissue imaging. It is to be understood that the in vitro evaluation of Kd values and tissue imaging observed for ^67Ga is predictive of ^68Ga. DUPA-EAOA-Phe-Phe-NOTA-^67Ga (67Ga-NOTA-LC-PSMA2) was prepared in nearly quantitative radiochemical yield. […] PC3 is a PSMA (−) cell line; LnCap is a PSMA (+) cell line; and PIP—PC3 is a transfect cell line with higher PSMA expression.

[5] = target: T1, PSMA (Homo sapiens, UniProt Q04609); test: In vitro study in PSMA(−) and PSMA(+) cell lines, Kd; format: cell-based; details: PSMA(−) cell line (PC3) and PSMA(+) cell lines (LnCaP and PIP—PC3); ^67Ga as surrogate of ^68Ga
T1 construct: LnCap is a PSMA (+) cell line; and PIP—PC3 is a transfect cell line with higher PSMA expression; endogenous in cells; host or cells: LnCaP (endogenous) and PIP-PC3 (PSMA-transfected PC3); PC3 as the PSMA(-) control
T1 sequence (Q04609 whole entry): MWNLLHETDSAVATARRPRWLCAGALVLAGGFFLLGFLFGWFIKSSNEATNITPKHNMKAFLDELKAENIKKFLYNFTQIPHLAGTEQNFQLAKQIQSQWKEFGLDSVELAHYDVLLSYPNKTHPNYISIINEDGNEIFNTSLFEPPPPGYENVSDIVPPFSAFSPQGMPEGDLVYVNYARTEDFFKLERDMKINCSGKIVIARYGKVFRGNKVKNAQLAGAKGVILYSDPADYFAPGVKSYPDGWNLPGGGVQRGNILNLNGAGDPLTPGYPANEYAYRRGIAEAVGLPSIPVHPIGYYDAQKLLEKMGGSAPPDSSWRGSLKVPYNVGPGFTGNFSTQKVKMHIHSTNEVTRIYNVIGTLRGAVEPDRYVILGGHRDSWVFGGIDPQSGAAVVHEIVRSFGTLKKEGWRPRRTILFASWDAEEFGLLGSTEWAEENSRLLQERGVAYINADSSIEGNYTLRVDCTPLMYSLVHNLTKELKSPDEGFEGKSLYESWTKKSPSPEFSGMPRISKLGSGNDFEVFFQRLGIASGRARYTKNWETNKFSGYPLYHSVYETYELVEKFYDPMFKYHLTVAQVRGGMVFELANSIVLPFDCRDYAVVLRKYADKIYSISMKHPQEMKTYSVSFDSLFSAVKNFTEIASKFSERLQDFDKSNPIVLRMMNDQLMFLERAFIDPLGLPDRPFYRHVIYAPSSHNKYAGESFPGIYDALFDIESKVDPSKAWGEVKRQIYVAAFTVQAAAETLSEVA
Description: as §2

[6] = system: PC3 cells; test: In vitro uptake by PC3 cells; format: cell-based; details: PC3, PSMA (−) cell line
Description: as §2

[7] = system: PSMA (+) LnCaP xenografts; test: in vivo; set-up: species or system mice; details: mouse
Excerpt: (§3) EXAMPLE. In vivo PET imaging and BioD study of DUPA-EAOA-Phe-Phe-NOTA-^68Ga radiotracer (^68Ga-QC08009). […] Without being bound by theory, it is believed herein that the data support that the primary elimination pathway is in urine.

[8] = in vivo; set-up: species or system mice; details: mouse, total radioactivity
Excerpt: as §3

[9] = system: LnCaP cells; test: In vitro uptake by LnCaP cells; format: cell-based
Description: as §2

[10] = system: PIP—PC3 cells; test: In vitro uptake by PIP—PC3 cells; format: cell-based
Description: as §2

[11] = target: T2, FR (Homo sapiens, UniProt P15328); test: Binding to FR in Cal51 xenograft tumor crude homogenate (concentration dependent binding, Scatchard analysis); details: Cal51 xenografts
T2 construct: to FR in KB and Cal51 tumor crude homogenate; from tissue; host or cells: KB and Cal51 tumour xenograft crude homogenates
T2 sequence (P15328 25-234): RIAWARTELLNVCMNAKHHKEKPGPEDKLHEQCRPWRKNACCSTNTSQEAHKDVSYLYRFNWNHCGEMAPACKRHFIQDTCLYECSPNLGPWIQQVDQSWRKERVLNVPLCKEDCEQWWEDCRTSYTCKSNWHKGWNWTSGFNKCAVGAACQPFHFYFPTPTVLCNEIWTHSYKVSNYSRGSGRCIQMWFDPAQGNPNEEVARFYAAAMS
Description: (§4) EXAMPLE. The specificity of the radionuclide containing conjugates binding to FR is evaluated against KB xenografts homogenates and Cal51 xenografts homogenates. […] Scatchard analyses were also performed. […] Without being bound by theory, it is believed herein that the moderate expression of FR in Cal51 xenografts accounts for the lower binding affinity. Binding affinities of ^18F-AIF-QC07017 (2) to FR in KB and Cal51 tumor crude homogenate.

[12] = target: T2, FR; test: Binding to FR in KB xenograft tumor crude homogenate (concentration dependent binding, Scatchard analysis); details: for non-specific binding: KB homogenates; for binding sites and affinity (Scatchard analyses): all cell xenografts
Description: as §4

[13] = system: KB tumor xenografts; test: μPET imaging under baseline and competed conditions in nude mice bearing KB tumor xenografts; format: in vivo; details: competed group, 100 μg of folic acid 10 min before i.v. injection
Description: EXAMPLE. μPET imaging was performed on nude mice bearing KB tumor xenografts under baseline and competed conditions to evaluate the in vivo binding specificity of ^18F-AIF-QC07017 (2) to FR. Nude mice bearing KB tumor xenografts on their left shoulder were injected with 0.30-0.40 mCi (2). […] Without being bound by theory, it is believed herein that the high radioactivity found in kidneys was due to the uptake mediated by FR that is expressed in the proximal tubule cells in kidneys and the potential accumulation of radiotracer via renal excretion, which was further supported by the biodistribution studies described herein. With the exception of the liver, significant uptake in other organs was not observed.

[14] = KB xenografts, tumor crude homogenate

Structure (SMILES) | binding affinity (in words) [11] | Bmax ([11]; tumor crude homogenate) [nM] | binding affinity (in words) ([12]; KB xenografts) | Bmax [12, 14] [nM] | binding sites and affinity (Scatchard analyses) [12] | FR specificity [1] | radiotracer level in kidneys [1] | accumulation in A549 xenograft tumor tissues [2] | binding affinity (in words) [3] | non-specific binding [12] | also measured
Nc1nc2ncc(CNc3ccc(C(=O)N[C@@H](CCC(=O)NCCOCCOCCOCCOCCOCCOCCOCCOCCOCCOCCOCCOCCC(=O)NCCNC(=O)CN4CCN(CC(=O)O)CCN(CC(=O)O)CC4)C(=O)O)cc3)nc2c(=O)[nH]1 (Al18F complex, metal not drawn) [^18F-AIF-QC07043] |  |  |  |  |  | comparable to etarfolatide (EC20) | highest signal | comparable to the liver | lowest binding affinity |  | 
O=C(O)CCC(NC(=O)NC(CCC(=O)NCCCCCCCC(=O)N[C@@H](Cc1ccccc1)C(=O)N[C@@H](Cc1ccccc1)C(=O)NCCNC(=O)CN1CCN(CC(=O)O)CCN(CC(=O)O)CC1)C(=O)O)C(=O)O (single isomer, unassigned) [^67Ga-NOTA-LC-PSMA2, DUPA-EAOA-Phe-Phe-NOTA-^67Ga, metal not drawn] |  |  |  |  |  |  |  |  |  |  | binding to PSMA(+) prostate cancer tissues [4]: superior binding; Kd [5]: 8.45 ± 2.16 nM
O=C(O)CCC(NC(=O)NC(CCC(=O)NCCCCCCCC(=O)N[C@@H](Cc1ccccc1)C(=O)N[C@@H](Cc1ccccc1)C(=O)NCCNC(=O)CN1CCN(CC(=O)O)CCN(CC(=O)O)CC1)C(=O)O)C(=O)O (single isomer, unassigned) [^68Ga-QC08009, DUPA-EAOA-Phe-Phe-NOTA-^68Ga, metal not drawn] |  |  |  |  |  |  |  |  |  |  | uptake by cells [6]: minimal; uptake by cells when competed ([6]; competing ligand): did not change when competed; accumulation in kidneys [7]: minor accumulation; tissue uptake dose [8]: 4.29 %ID; uptake by cells ([9]; PSMA (+) cell line): substantial; uptake by cells when competed ([9]; competing ligand): blocked by competing ligand; uptake by cells when competed ([10]; PIP—PC3, competing ligand): blocked by competing ligand; uptake by cells ([10]; PIP—PC3, transfect cell line with higher PSMA expression): substantial, with PIP—PC3 cells showing the highest uptake
Nc1nc2ncc(CNc3ccc(C(=O)N[C@@H](CCC(=O)NCCOCCOCCNC(=O)CN4CCN(CC(=O)O)CCN(CC(=O)O)CC4)C(=O)O)cc3)nc2c(=O)[nH]1 [^18F-AIF-QC07017] | Moderate binding affinity | 36 | high specific binding affinity | 511 | bound one site with high affinity | comparable to etarfolatide (EC20) | highest signal | comparable to the liver | lowest binding affinity | Significant non-specific binding was not observed | Kd ([11]; tumor crude homogenate): 1.1 nM; Kd [12, 14]: 0.7 nM; binding by self competition ([12]; human tumor xenografts (KB and Cal51)): Displaceable and saturable binding; tumor uptake under competition with folic acid [13]: completely inhibited
Nc1nc2ncc(CNc3ccc(C(=O)N[C@@H](CCC(=O)NCCOCCOCCOCCOCCOCCOCCOCCOCCOCCOCCOCCOCCC(=O)NCCNC(=O)CN4CCN(CC(=O)O)CCN(CC(=O)O)CC4)C(=O)O)cc3)nc2c(=O)[nH]1 [^18F-AIF-QC07043] | Moderate binding affinity | 13 | high specific binding affinity | 241 | bound one site with high affinity |  |  |  |  | Significant non-specific binding was not observed | 
